Here are results for one molecule from ChEMBL document CHEMBL4406808, “Synthesis and assessment of phenylacrylamide derivatives as potential anti-oxidant and anti-inflammatory agents” (Eur J Med Chem, 2019).

Calls of active or inactive are those of the source. The rule behind the calls is not given here.

Experiment [1] concerns the target Kelch-like ECH-associated protein 1 (Rattus norvegicus) (UniProt P57790). Briefly: Binding affinity to Keap1 in rat HBZY-1 cells assessed as induction of Keap1/Nrf2 signaling by measuring increase in HO-1 protein expression by Western blot analysis. The format is cell-based. (Immunoblotting shows a protein as a band on a membrane.)
For experiment [2] the target is unchanged. The experiment can be described thus: Binding affinity to Keap1 in rat HBZY-1 cells assessed as induction of Keap1/Nrf2 signaling by measuring increase in GCLM protein expression by Western blot analysis. The format is cell-based.
For experiment [3] the target is unchanged. Briefly: Binding affinity to Keap1 in rat HBZY-1 cells assessed as induction of Keap1/Nrf2 signaling by measuring increase in GCLC mRNA expression at 6 uM by RT-PCR analysis. The format is cell-based.
Experiment [4] shares this target. The experiment can be described thus: Binding affinity to Keap1 in rat HBZY-1 cells assessed as induction of Keap1/Nrf2 signaling by measuring increase in NQO-1 protein expression by Western blot analysis. The format is cell-based.
Experiment [5] has the same target. The experiment can be described thus: Binding affinity to Keap1 in rat HBZY-1 cells assessed as induction of Keap1/Nrf2 signaling by measuring increase in GCLC protein expression by Western blot analysis. It is filed as cell-based.
The subject of experiment [6] is HBZY-1. The experiment can be described thus: Cytoprotection activity against H2O2-induced cell death in rat HBZY-1 cells assessed as cell viability at 6 uM preincubated with compound for 2 hrs followed by H2O2 addition and measured after 24 hrs by MTT assay (reference value: 62.1%). It is filed as functional. As to conditions: read-out: Activity. (In general: Tetrazolium dyes change colour on reduction, which living cells bring about.)

In experiment [7] the target is Kelch-like ECH-associated protein 1 (Rattus norvegicus) (UniProt P57790). The experiment can be described thus: Binding affinity to Keap1 in rat HBZY-1 cells assessed as induction of Nrf2 nuclear translocation by measuring increase in ratio of nuclear to cytosolic Nrf2 level by Western blot analysis. The format is cell-based.
Chain of Kelch-like ECH-associated protein 1 (Rattus norvegicus) (P57790 whole entry): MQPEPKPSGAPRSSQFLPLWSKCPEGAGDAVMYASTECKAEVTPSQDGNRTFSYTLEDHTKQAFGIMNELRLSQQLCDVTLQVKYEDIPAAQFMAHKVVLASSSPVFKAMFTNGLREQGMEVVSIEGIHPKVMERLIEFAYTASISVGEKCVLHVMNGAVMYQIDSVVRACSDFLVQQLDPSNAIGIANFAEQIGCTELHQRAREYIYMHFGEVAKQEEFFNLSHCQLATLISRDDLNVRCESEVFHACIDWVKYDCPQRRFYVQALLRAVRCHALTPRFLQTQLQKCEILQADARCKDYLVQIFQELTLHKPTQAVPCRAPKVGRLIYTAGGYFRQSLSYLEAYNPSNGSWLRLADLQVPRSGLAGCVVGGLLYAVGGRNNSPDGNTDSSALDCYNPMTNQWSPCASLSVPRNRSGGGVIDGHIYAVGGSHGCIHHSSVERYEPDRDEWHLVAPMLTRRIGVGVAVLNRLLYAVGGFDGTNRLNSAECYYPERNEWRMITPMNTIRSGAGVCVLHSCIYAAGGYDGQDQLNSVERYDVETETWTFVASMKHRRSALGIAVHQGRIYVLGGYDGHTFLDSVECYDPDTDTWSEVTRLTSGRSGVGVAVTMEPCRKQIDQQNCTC
Experiment [8] has the same target. Briefly: Binding affinity to Keap1 in rat HBZY-1 cells assessed as induction of Keap1/Nrf2 signaling by measuring increase in HO-1 mRNA expression at 6 uM by RT-PCR analysis. It is filed as cell-based.
Experiment [9] has the same target. The experiment can be described thus: Binding affinity to Keap1 in rat HBZY-1 cells assessed as induction of Keap1/Nrf2 signaling by measuring increase in NQO-1 mRNA expression at 6 uM by RT-PCR analysis. The format is cell-based.
Experiment [10] shares this target. Briefly: Binding affinity to Keap1 in rat HBZY-1 cells assessed as induction of Keap1/Nrf2 signaling by measuring increase in GCLM mRNA expression at 6 uM by RT-PCR analysis. The format is cell-based.

Take `Oc1ccc(/C=C/c2cc(O)cc(O)c2)cc1` [RESVERATROL]: the result in [1], in [2], in experiment [3], in experiment [4], in experiment [5] and in experiment [7] was Active. The outcome in experiment [8], in experiment [9] and in experiment [10] was Active. For the same molecule, in [6], the viability at 6 µM stood at 76.8%.
